Assay results published in ChEMBL document CHEMBL5500393, “Discovery and Optimization of Novel SaFabI Inhibitors as Specific Therapeutic Agents for MRSA Infection” (J Med Chem, 2024).
≈ marks a conversion by molar mass, not a printed value. Calls of active or inactive are those of the source. The rule behind the calls is not given here.

Assays:
[1] = Acute toxicity in female BALB/c mouse assessed as effect on heart at 800 mg/kg, po measured after 14 days by H and E staining based analysis; format: organism-based; settings: in vivo, 336 h, time 14 day
[2] = Hemolytic activity in sheep erythrocytes assessed as hemolysis at 256 ug/ml incubated for 1 hr by microplate reader based analysis relative to control; format: toxicity, cell-based, Ovis aries, Erythrocyte; settings: at 256 µg/mL, read-out: Activity
Staphylococcus aureus [3] = assay: Bactericidal activity against […] Staphylococcus aureus ATCC33591 measured upto 24 hr by time-kill assay; format: functional, organism-based
Staphylococcus aureus [4] = assay: Bactericidal activity against […] Staphylococcus aureus ATCC33591 assessed as log reduction in bacterial count at 2 times MIC measured within 8 to 12 hrs by time-kill assay; format: functional; settings: time 8-12 hrs
Staphylococcus aureus [5] = assay: Antimicrobial activity against Staphylococcus aureus RN4220 harbouring pCM-sfgfp::fabi (promoter fabi) measured after 24 hrs by CLSI protocol based microdilution method; format: functional
Staphylococcus aureus [6] = assay: Antimicrobial activity against […] Staphylococcus aureus NRS271 measured after 24 hrs by CLSI protocol based microdilution method; format: functional
[7] = Metabolic stability in mouse liver microsomes assessed as intrinsic clearance at 1 uM measured upto 120 mins in presence of NADPH by LC-MS analysis; format: ADME, Microsome; settings: read-out: CLH
[8] = biological target: T1, Enoyl-[acyl-carrier-protein] reductase [NADPH] FabI (Staphylococcus aureus) (UniProt Q6GI75); assay: Inhibition of N-terminal his 6 tagged Staphylococcus aureus Fabi (1 to […] residues) expressed in Escherichia coli BL21 at 1 uM incubated for 30 mins in presence of NADPH by fluorescence based microplate reader analysis relative to control
T1 sequence (whole entry): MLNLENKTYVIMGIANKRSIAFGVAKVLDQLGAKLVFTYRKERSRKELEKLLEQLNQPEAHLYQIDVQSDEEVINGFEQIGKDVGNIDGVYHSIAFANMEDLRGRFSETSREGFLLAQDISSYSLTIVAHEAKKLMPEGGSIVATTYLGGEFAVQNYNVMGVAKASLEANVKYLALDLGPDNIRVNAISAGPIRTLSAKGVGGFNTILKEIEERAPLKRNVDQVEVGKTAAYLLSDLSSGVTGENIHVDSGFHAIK

[9] = Half life in female Sprague-Dawley rat at 20 mg/kg, po measured upto 24 hrs by LC-MS analysis; format: ADME, organism-based; settings: in vivo
[10] = Acute toxicity in female BALB/c mouse assessed as animal death at 800 mg/kg, po measured after 14 days; format: organism-based; settings: in vivo, 336 h, time 14 day
[11] = Tmax in female Sprague-Dawley rat at 20 mg/kg, po measured upto 24 hrs by LC-MS analysis; format: ADME, organism-based; settings: in vivo
Cell membrane [12] = assay: Induction of cell membrane damage in methicillin-resistant Staphylococcus aureus ATCC33591 assessed as outflow of cytoplasmic content at 1 times MIC measured after 30 mins by TEM analysis; format: cell membranes
[13] = Clearance in female Sprague-Dawley rat at 20 mg/kg, po measured upto 24 hrs by LC-MS analysis; format: ADME, organism-based; settings: in vivo
[14] = Acute toxicity in female BALB/c mouse assessed as effect on liver at 800 mg/kg, po measured after 14 days by H and E staining based analysis; format: organism-based; settings: in vivo, 336 h, time 14 day
Staphylococcus aureus [15] = assay: Antimicrobial activity against […] Staphylococcus aureus ATCC33591 measured after 24 hrs by CLSI protocol based microdilution method; format: functional
[16] = Metabolic stability in human liver microsomes assessed as half life at 1 uM measured upto 120 mins in presence of NADPH by LC-MS analysis; format: ADME, Microsome
Escherichia coli = assay: Antimicrobial activity against Escherichia coli ATCC25922 measured after 24 hrs by CLSI protocol based microdilution method; format: functional
Cell membrane [17] = assay: Induction of cell membrane permeability in methicillin-resistant Staphylococcus aureus ATCC33591 assessed as fold increase in fluorescence intensity at 0.25 times MIC measured after 30 mins by Annexin V-FITC staining based analysis; format: cell membranes
[18] = Acute toxicity in female BALB/c mouse assessed as effect on ALB level in serum at 800 mg/kg, po measured after 14 days; format: organism-based; settings: in vivo, 336 h, time 14 day
Cell membrane [19] = assay: Induction of cell membrane permeability in methicillin-resistant Staphylococcus aureus ATCC33591 assessed as fold increase in fluorescence intensity at 0.5 times MIC measured after 30 mins by Annexin V-FITC staining based analysis; format: cell membranes
[20] = Selectivity index, ratio of HC50 for sheep erythrocytes to MIC for Staphylococcus aureus; format: toxicity; settings: read-out: Selectivity Index
[21] = Inhibition of N-terminal his 6 tagged Acinetobacter baumannii Fabi (1 to 804 residues) expressed in Escherichia coli BL21 incubated for 30 mins in presence of NADH by fluorescence based microplate reader analysis
[22] = Drug concentration in BALB/c mouse plasma at 400 mg/kg, po measured after 1 hr by LC-MS analysis; format: ADME, organism-based
[23] = biological target: T1, Enoyl-[acyl-carrier-protein] reductase [NADPH] FabI (Staphylococcus aureus); assay: Inhibition of N-terminal his 6 tagged Staphylococcus aureus Fabi (1 to […] residues) expressed in Escherichia coli BL21 at 10 uM incubated for 30 mins in presence of NADPH by fluorescence based microplate reader analysis relative to control
[24] = Metabolic stability in mouse liver microsomes assessed as half life at 1 uM measured upto 120 mins in presence of NADPH by LC-MS analysis; format: ADME, Microsome
[25] = Metabolic stability in human liver microsomes assessed as intrinsic clearance at 1 uM measured upto 120 mins in presence of NADPH by LC-MS analysis; format: ADME, Microsome; settings: read-out: CLH
Cell membrane [26] = assay: Induction of cell membrane damage in methicillin-resistant Staphylococcus aureus ATCC33591 assessed as increase in red fluorescence at 1 times MIC measured after 30 mins by […] analysis; format: cell membranes
Staphylococcus aureus [27] = assay: Antimicrobial activity against […] Staphylococcus aureus ATCC33591 assessed as reduction in lipid content at 8 times MIC measured after 4 hrs by microplate reader based analysis; format: functional, organism-based
[28] = Acute toxicity in female BALB/c mouse assessed as effect on CREA level in serum at 800 mg/kg, po measured after 14 days; format: organism-based; settings: in vivo, 336 h, time 14 day
Cell membrane [29] = assay: Induction of cell membrane damage in methicillin-resistant Staphylococcus aureus ATCC33591 assessed as broken cell surface at 1 times MIC measured after 30 mins by TEM analysis; format: cell membranes
Enterococcus faecium = assay: Antimicrobial activity against Enterococcus faecium ATCC19434 measured after 24 hrs by CLSI protocol based microdilution method; format: functional
[30] = Acute toxicity in female BALB/c mouse assessed as effect on lung at 800 mg/kg, po measured after 14 days by H and E staining based analysis; format: organism-based; settings: in vivo, 336 h, time 14 day
[31] = Cmax in female Sprague-Dawley rat at 5 mg/kg, iv measured upto 24 hrs by LC-MS analysis; format: ADME, organism-based; settings: in vivo
[32] = Aqueous solubility of the compound measured after 24 hrs by HPLC analysis; format: physicochemical
[33] = biological target: T1, Enoyl-[acyl-carrier-protein] reductase [NADPH] FabI (Staphylococcus aureus); assay: Binding affinity to N-terminal his 6 tagged Staphylococcus aureus Fabi (1 to […] residues) expressed in Escherichia coli BL21 assessed as increase in thermal stability at 10 ug/ml measured after 1 hr by […] assay; settings: dose 10.0 µg/ml

SMILES | Activity [1] | hemolysis at 1 h, 256 ug/ml [2] [%] | Activity (Staphylococcus aureus [3]) | log(activity) (Staphylococcus aureus [4]) | MIC (Staphylococcus aureus [5]) [µg/mL] | MIC (Staphylococcus aureus [6]) [µg/mL] | CLint scaled at 1 µM [7] [mL/min/kg] | inhibition [8] [%] | t1/2 [9] [min] | Activity [10] | Tmax [11] [min] | Activity (Cell membrane [12]) | CL/F [13] [mL/min/kg] | Activity [14] | MIC (Staphylococcus aureus [15]) [µg/mL] | half-life at 1 µM [16] [min] | MIC (Escherichia coli) [µg/mL] | fold change (FC) (Cell membrane [17]) | Activity [18] | fold change (FC) (Cell membrane [19]) | other results
COc1c(Br)cccc1N1CC(c2nc3ccccc3n2C)CC1=O (stereo not given) | Non-Toxic | 8.1 | Dose-Dependent Effect | 2.3 | 32 (≈ 79.9 µM) | 2 (≈ 5 µM) | 414 | 89.6 | 558 | Non-Toxic | 30 | Active | 86.7 | Non-Toxic | 1 (≈ 2.5 µM) | 38.3 | > 32 | 1.4 | Non-Toxic | 1.9 | selectivity ratio [20]: > 128; IC50 [21]: 266 nM; concentration at 1 h [22]: 18100 ng/mL; inhibition [23]: 99.3%; half-life at 1 µM [24]: 13.2 min; CLint scaled at 1 µM [25]: 45.4 mL/min/kg; Activity (Cell membrane [26]): Active; Activity (Staphylococcus aureus [27]): Active; Activity [28]: Non-Toxic; Activity (Cell membrane [29]): Active; MIC (Enterococcus faecium): > 32 µg/mL; Activity [30]: Non-Toxic; Cmax [31]: 2720 ng/mL; solubility at 24 h [32]: 467 µg/mL (≈ 1170 µM); Activity [33]: Active
Cc1c(Br)cccc1N1CC(c2nc3ccccc3n2C)CC1=O (stereo not given) | Non-Toxic | 9.9 | Dose-Dependent Effect | 3.2 | 32 (≈ 83.3 µM) | 2 (≈ 5.2 µM) | 197 | 88.9 | 522 | Non-Toxic | 60 | Active | 26.7 | Non-Toxic | 1 (≈ 2.6 µM) | 63.6 | > 32 | 1.3 | Non-Toxic | 2.1 | selectivity ratio [20]: > 128; IC50 [21]: 266 nM; concentration at 1 h [22]: 24000 ng/mL; inhibition [23]: 98.7%; half-life at 1 µM [24]: 27.7 min; CLint scaled at 1 µM [25]: 27.3 mL/min/kg; Activity (Cell membrane [26]): Active; Activity (Staphylococcus aureus [27]): Active; Activity [28]: Non-Toxic; Activity (Cell membrane [29]): Active; MIC (Enterococcus faecium): > 32 µg/mL; Activity [30]: Non-Toxic; Cmax [31]: 3240 ng/mL; solubility at 24 h [32]: 388 µg/mL (≈ 1010 µM); Activity [33]: Active
